Laboratory results reported in publication PMC10800708, “Efficacies and ADME properties of redox active methylene blue and phenoxazine analogues for use in new antimalarial triple drug combinations with amino-artemisinins” (Frontiers in Pharmacology, 2024).
Where “and” joins values, the source holds several entries; their conditions need not be identical. Equal values may be shown once. Read-outs that look alike come from different tables or passages of the source.

What was measured:
[1] = test system: Chinese Hamster Ovary (CHO) cell line, CHO-K1; test: MTT cytotoxicity assay; format: cell-based; conditions: for IC50: Cricetulus griseus, CHO cells, MTT; for Selectivity index CHO/resistant Pf strain: cytotoxicity IC50/activity IC50, CHO/DD2; for Selectivity index CHO/sensitive Pf strain: cytotoxicity IC50/activity IC50, CHO/NF54
Procedure: Cytotoxicity assays were conducted against the Chinese Hamster Ovary (CHO) cell line, ATCC CCL-61, strain CHO-K1. […] Cells were grown at 37°C in a humidified atmosphere of 5% CO2 and maintained by passage. Cells lines were seeded in 96-well microtitre plates at 10^4 cells/well in cell medium. […] DMSO (100 µL) was added to dissolve the MTT formazan precipitate, and the plates were gently agitated for 2 min to ensure homogeneity. Absorbance was measured at 540 nm using a Turner BioSystems, Inc. ModulusTM II Microplate Reader. The data were analyzed by nonlinear regression analysis using the GraphPad PRISM version 5.00 program to determine the IC50 of each compound.

[2] = In vivo PK, iv and oral, whole blood; set-up: species or system C57BL/6 mice; conditions: for Vd / clearance / half-life / Cmax / Tmax: C57BL/6, mouse; for Vd / clearance / half-life / AUC0-∞ / Oral Cmax relative to the IC50 value / BA: mice; for Cmax / Tmax: po, 5 mg/kg; for BA: oral bioavailability
Procedure: • i. Animals. […] Food and water were available ad libitum. Mice were acclimatised to the experimental environment for 4-5 days prior to initiating the experiments. • ii. Oral drug administration. AD01 and PhX6 were prepared in 100% Millipore […] prepared in an aqueous suspension of 0.5% HPMC (w/v) containing 0.2% Tween 80 (v/v). The weighed compounds were sonicated and vortexed to ensure all solutions were homogenous. […] The total volume per administration was 200 μL. Blood samples were collected post-dose in lithium heparin microvials via tail bleeding at predetermined intervals at 0.5, 1, 3, 5, 8, 10 and 24 h. Samples were gently vortexed and stored at -80°C until analysis. • iii. Intravenous administration. AD01 and PhX6 were prepared in 100% Millipore […] prepared in an organic vehicle consisting of 10% N,N-dimethylacetamide, 30% polyethylene glycol 400 (PEG), 50% polypropylene glycol (PPG) and 10% ethanol (1:3:5:1, v/v) for intravenous (iv) dosing at 10 mg/kg. The total volume of administration was 80 μL. Blood samples were collected post-dose in lithium heparin microvials via tail bleeding at predetermined intervals at 0.16, 0.5, 1, 3, 5, 8, 10 and 24 h. Samples were gently vortexed and stored at -80°C until analysis. • iv. Sample processing and analysis. […] The mixture was vortexed vigorously for 1 min, and 5 μL of the supernatant were injected onto the analytical column following centrifugation (5590 g for 5 min). A Shimadzu HPLC and reverse phase Gemini NX-C18 column coupled to an AB Sciex 3200 Q TRAP MS was operated at unit resolution in the multiple reaction monitoring (MRM) mode as described above. […] Data analysis. Drug concentration versus time plots for each compound were used to determine maximal drug concentration C max, time T max to reach C max, elimination half-life t 1/2 and the area under the concentration-time curve from time zero to infinity, AUC0-inf. From these values the PK parameters clearance CL, volume of distribution Vd and oral bioavailability BA were determined using the non-compartmental analysis Microsoft Excel Add-In PKSolver ([Zhang et al., 2010]).

[3] = test system: CQ-sensitive Plasmodium falciparum NF54 strain; test: Fixed ratio combination (isobologram) experiments, 72-h pLDH assay; format: cell-based; conditions: asexual blood stages, Pf NF54, fixed ratio isobologram
Procedure: Artemisone was used in the combination studies with each of AD01 and PhX6. Combination studies were conducted using a modified version of the method described by [Fivelman et al. (2004)] ([Fivelman et al., 2004]). Against drug-sensitive NF54 P. falciparum parasites in the standard 72-h pLDH assay. The drug stocks were then mixed to make 6 different volumetric ratios to obtain a range of concentrations (Table 2). Concentration ranges for combinations were prepared from the predetermined single IC50 values (Table 3) such that the IC50 of the individual compounds would be in the middle of the plate. The FIC50 and ∑FIC were calculated as described in Eqs 6–8 ([Fivelman et al., 2004]).
Eq. 6: FIC50 of compound A FIC50A=IC50 A+B/IC50 A
Eq. 7: FIC50 of compound B FIC50B=IC50 B+A/IC50 B
Finally, FIC50 values of compounds in respective combinations were plotted as isobolograms.
Although there is currently no standardised method to determine drug combination effects, many models are available ([Wagner and Ulrich-Merzenich, 2009]; [Matthews et al., 2017]). The fixed ratio isobologram method has been widely used in many fields including antimalarial drug discovery and development ([Fivelman et al., 2004]; [Wagner and Ulrich-Merzenich, 2009]; [Matthews et al., 2017]). […] The relationship can also be determined by plotting the FIC50 of each compound on separate axes to create an isobologram. […]

[4] = Plasma protein binding, ultracentrifugation; format: in vitro ADME; conditions: pooled human plasma
Procedure: Plasma protein binding. Plasma protein binding was determined in pooled human plasma using an ultracentrifugation method. Stock solutions of test compounds (10 mM) were diluted in phosphate buffer and spiked into plasma in deep well 96-well plates (10 µM). An aliquot of each compound was immediately precipitated with ice cold acetonitrile containing the internal standard carbamazepine (0.1 μM). These served as total concentration samples. After incubation in a water bath at 37°C for 1 h, the samples were transferred to ultracentrifuge tubes in duplicate and centrifuged for 4 h at 37°C and 30,000 g (Optima L-80XP, Beckman). Following centrifugation, the supernatant was transferred to the plate containing the total concentration samples and precipitated with ice cold acetonitrile containing the internal standard. Analyte concentrations of all compounds were determined via LC-MS/MS (reverse phase Gemini NX-C18 column and Shimadzu HPLC coupled with an AB Sciex 3200 Q TRAP MS) as described above. • vi.

[5] = 10 mg/kg, intravenous, whole blood
[6] = whole blood, iv, 10 mg/kg, intravenous, whole blood, read-out: t1/2 (converted)
[7] = oral gavage: AD01 4.6, PhX6 4.5, DpNEt 5 mg/kg

SMILES	IC50 [1] [µM]	Selectivity index CHO/resistant Pf strain [1]	Selectivity index CHO/sensitive Pf strain [1]	Vd [2, 5] [L/kg]	clearance [2, 5] [mL/min/kg]	half-life [2, 6] [min]	Cmax ([2]; whole blood) [nM]	Tmax ([2]; whole blood) [min]	AUC0-∞ ([2]; intravenous, whole blood) [µmol·min/L]	Oral Cmax relative to the IC50 value [2] [fold]	BA [2]	AUC0-∞ [2, 7]	Interaction in combination with artemisone (overall, in words) [3]	fraction unbound at 1 h, 10 µM [4]	half-life ([2]; whole blood, two-compartment behaviour, read-out: Distribution half-life) [min]
CCN(CC)c1ccc2nc3ccc(=[N+](CC)CC)cc-3sc2c1 [AD01]	74 ± 9.4	>1,000	>1,000	16.2 ± 1.73	74.4 ± 6.68	151 ± 4.2	250 ± 50	52.8 ± 7.8	186 ± 15	~10	15% and 15 ± 4%	101 ± 19 µmol·min/L	enhanced synergistically	–	–
CCN(CC)c1ccc2nc3c4ccccc4/c(=N\c4ccccn4)cc-3oc2c1 [PhX6]	192 ± 4.6	>1,000	>1,000	14.9 ± 2.09	21.5 ± 1.76	478 ± 43.8	3450 ± 680	48 ± 7.2	540 ± 44	~100	60% and 60 ± 12%	1,150 ± 216 min∙µmol/L	enhanced synergistically	0.1	26
